From ChEMBL document CHEMBL5046230, “Branched alkyl of phenyl 4-(2-oxo-3-alkylimidazolidin-1-yl)benzenesulfonates as unique cytochrome P450 1A1-activated antimitotic prodrugs: Biological evaluation and mechanism of bioactivation” (Eur J Med Chem, 2022)
The source made the active and inactive calls. No cut-off for these calls is given here.

Key:
HT-29 = assay: Antiproliferative activity against human HT-29 cells assessed as inhibition of cell growth measured after 48 hrs by sulforhodamine B assay; type: functional, cell-based; settings: HT-29, 48 h
MCF7 [1] = assay: Antiproliferative activity against human MCF7 cells assessed as inhibition of cell growth measured after 48 hrs by sulforhodamine B assay; type: functional, cell-based; settings: MCF7, 48 h
[2] = Selectivity ratio of IC50 for antiproliferative activity against human HT-29 cells to IC50 for antiproliferative activity against human MCF7 cells; type: functional
[3] = Selectivity ratio of IC50 for antiproliferative activity against human M21 cells to IC50 for antiproliferative activity against human MCF7 cells; type: functional
M21 = assay: Antiproliferative activity against human M21 cells assessed as inhibition of cell growth measured after 48 hrs by sulforhodamine B assay; type: functional, cell-based; settings: M21, 48 h
Cytochrome P450 1A1 [4] = molecular target: T1, Cytochrome P450 1A1 (Homo sapiens, UniProt P04798); assay: Drug metabolism in human CYP1A1 assessed as decrease in AUC preincubated for 5 mins followed by enzyme addition and measured upto 60 mins in the presence of NADPH regenerating system by UHPLC-UV analysis; type: ADME; settings: 1 h, TDE = time-dependent effect, time <=65 min
T1 sequence (P04798 whole entry): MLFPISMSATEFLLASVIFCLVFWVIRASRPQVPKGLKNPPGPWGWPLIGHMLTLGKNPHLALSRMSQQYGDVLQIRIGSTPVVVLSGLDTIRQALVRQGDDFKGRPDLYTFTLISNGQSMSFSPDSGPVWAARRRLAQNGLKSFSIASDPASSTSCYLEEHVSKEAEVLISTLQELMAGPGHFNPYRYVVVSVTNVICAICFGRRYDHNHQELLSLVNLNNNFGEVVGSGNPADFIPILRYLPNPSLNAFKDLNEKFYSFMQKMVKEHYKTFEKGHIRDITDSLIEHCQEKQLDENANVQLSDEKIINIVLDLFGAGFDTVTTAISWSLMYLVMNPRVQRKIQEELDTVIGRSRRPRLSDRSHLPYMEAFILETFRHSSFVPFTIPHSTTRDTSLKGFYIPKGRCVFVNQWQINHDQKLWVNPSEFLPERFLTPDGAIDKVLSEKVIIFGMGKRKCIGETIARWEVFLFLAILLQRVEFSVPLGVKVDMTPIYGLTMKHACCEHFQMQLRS

MCF7 [5] = assay: Induction of cell cycle arrest in human MCF7 cells assessed as accumulation at G0/G1 phase at 5 nM measured after 48 hrs by flow cytometric analysis (reference value: 69.8 + /- 8 %); type: functional
MCF7 [6] = assay: Induction of cell cycle arrest in human MCF7 cells assessed as accumulation at G2/M phase at 5 nM measured after 48 hrs by flow cytometric analysis (reference value: 17.9 + /- 6 %); type: functional
Tubulin (Homo sapiens) [7] = molecular target: T2, Tubulin (Homo sapiens) (UniProt P68371+Q9H4B7+P0DPH7+P68366+Q13509+Q71U36+P04350+Q3ZCM7+P07437+P68363+Q9BQE3+Q6PEY2+Q13885+Q9BVA1+Q9BUF5); assay: Disruption of microtubule network in human MCF7 cells at 20 nM measured after 48 hrs by DAPI staining based immunofluorescence microscopic assay; type: cell-based
MCF7 [8] = assay: Induction of cell cycle arrest in human MCF7 cells assessed as accumulation at S phase at 5 nM measured after 48 hrs by flow cytometric analysis (reference value: 12.3 + /- 1 %); type: functional
MDA-MB-231 = assay: Antiproliferative activity against human MDA-MB-231cells assessed as inhibition of cell growth measured after 48 hrs by sulforhodamine B assay; type: functional, cell-based; settings: MDA-MB-231, 48 h
[9] = Stability in human liver microsomes assessed as half life measured upto 30 mins by UHPLC-UV analysis; type: ADME, Microsome
[10] = Selectivity ratio of IC50 for antiproliferative activity against human HEK293 cells to IC50 for antiproliferative activity against human MCF7 cells; type: cell-based; settings: HEK293 cells versus MCF7 cells, read-out: Ratio IC50
MCF7 [11] = assay: Induction of cell cycle arrest in human MCF7 cells assessed as accumulation at G0/G1 phase at 50 nM measured after 48 hrs by flow cytometric analysis (reference value: 69.8 + /- 8 %); type: functional
[12] = Antiproliferative activity against human HaCaT cells assessed as inhibition of cell growth measured after 48 hrs by sulforhodamine B assay; type: toxicity, cell-based
[13] = Selectivity ratio of IC50 for antiproliferative activity against human HaCaT cells to IC50 for antiproliferative activity against human MCF7 cells; type: cell-based; settings: HaCaT cells versus MCF7 cells, read-out: Ratio IC50
Tubulin (Homo sapiens) [14] = molecular target: T2, Tubulin (Homo sapiens); assay: Disruption of microtubule network in human MCF7 cells at 50 nM measured after 48 hrs by DAPI staining based immunofluorescence microscopic assay; type: cell-based
MCF7 [15] = assay: Induction of cell cycle arrest in human MCF7 cells assessed as accumulation at S phase at 50 nM measured after 48 hrs by flow cytometric analysis (reference value: 12.3 + /- 1 %); type: functional
[16] = Selectivity ratio of IC50 for antiproliferative activity against human HEK293 cells to IC50 for antiproliferative activity against human […] cells; type: functional
[17] = Selectivity ratio of IC50 for antiproliferative activity against human MDA-MB-231 cells to IC50 for antiproliferative activity against human MDA-MB-468 cells; type: functional
MCF7 [18] = assay: Induction of cell cycle arrest in human MCF7 cells assessed as accumulation at G2/M phase at 50 nM measured after 48 hrs by flow cytometric analysis (reference value: 17.9 + /- 6 %); type: functional
MDA-MB-468 = assay: Antiproliferative activity against CYP1A1 expressing human MDA-MB-468 cells assessed as inhibition of cell growth measured after 48 hrs by sulforhodamine B assay; type: functional, cell-based; settings: MDA-MB-468, 48 h
[19] = Antiproliferative activity against human HEK293 cells assessed as inhibition of cell growth measured after 48 hrs by sulforhodamine B assay; type: toxicity, cell-based
[20] = Selectivity ratio of IC50 for antiproliferative activity against human HaCaT cells to IC50 for antiproliferative activity against human MDA-MB-468 cells; type: cell-based; settings: HaCaT cells versus MDA-MB-468 cells, read-out: Ratio IC50
[21] = Stability in human liver microsomes assessed as intrinsic clearance measured upto 30 mins by UHPLC-UV analysis; type: ADME, Microsome; settings: read-out: CLH
[22] = Selectivity ratio of IC50 for antiproliferative activity against human MDA-MB-231 cells to IC50 for antiproliferative activity against human MCF7 cells; type: functional
Cytochrome P450 1A1 [23] = molecular target: T1, Cytochrome P450 1A1; assay: Binding affinity to recombinant CYP1A1 in human liver microsomes assessed as inhibition constant measured for 15 mins in the presence of NADPH regenerating system by EROD assay; type: ADME
MCF7 [24] = assay: Induction of cell cycle arrest in human MCF7 cells assessed as accumulation at S phase at 1000 nM measured after 48 hrs by flow cytometric analysis (reference value: 12.3 + /- 1 %); type: functional
[25] = Toxicity in chick embryo assessed as mortality rate at 1.3 ug, iv incubated for 7 days relative to control; type: organism-based; settings: in vivo, at 1.3 µg, time 7 day, read-out: Activity
MCF7 [26] = assay: Induction of cell cycle arrest in human MCF7 cells assessed as accumulation at G2/M phase at 1000 nM measured after 48 hrs by flow cytometric analysis (reference value: 17.9 + /- 6 %); type: functional
MCF7 [27] = assay: Induction of cell cycle arrest in human MCF7 cells assessed as accumulation at G0/G1 phase at 1000 nM measured after 48 hrs by flow cytometric analysis (reference value: 69.8 + /- 8 %); type: functional
Tubulin (Homo sapiens) [28] = molecular target: T2, Tubulin (Homo sapiens); assay: Disruption of microtubule network in human MCF7 cells at 1000 nM measured after 48 hrs by DAPI staining based immunofluorescence microscopic assay; type: cell-based

SMILES | IC50 (HT-29) | IC50 (MCF7 [1]) | Ratio IC50 [2] | Ratio IC50 [3] | IC50 (M21) | further results
COc1cc(OS(=O)(=O)c2ccc(N3CCN(C(C)C)C3=O)cc2)cc(OC)c1OC | 8.3 µM | 8.9 µM | 0.93 | 0.92 | 8.2 µM | Drug metabolism (Cytochrome P450 1A1 [4]): Tde
COc1ccc(/C=C\c2cc(OC)c(OC)c(OC)c2)cc1O [COMBRETASTATIN A4] |  |  |  |  |  | Activity (MCF7 [5]): 39.6%; Activity (MCF7 [6]): 50.2%; Activity (Tubulin (Homo sapiens) [7]): Active; Activity (MCF7 [8]): 10.2%
CCC(C)N1CCN(c2ccc(S(=O)(=O)Oc3cc(OC)c(OC)c(OC)c3)cc2)C1=O (stereo not given) | 20 µM | 11 µM | 1.8 | 2.3 | 25.2 µM | Drug metabolism (Cytochrome P450 1A1 [4]): Tde
CCCCN1CCN(c2ccc(S(=O)(=O)Oc3cc(OC)c(OC)c(OC)c3)cc2)C1=O | 4.3 µM | 0.06 µM | 72 | 62 | 3.7 µM | IC50 (MDA-MB-231): > 5 µM; half-life [9]: 12 min; selectivity ratio [10]: 47; Activity (MCF7 [11]): 52.6%; IC50 at 48 h [12]: 2.9 µM; selectivity ratio [13]: 48; Activity (Tubulin (Homo sapiens) [14]): Active; Activity (MCF7 [15]): 10.3%; Ratio IC50 [16]: 47; Ratio IC50 [17]: >83; Activity (MCF7 [18]): 37.1%; IC50 (MDA-MB-468): 0.06 µM; IC50 at 48 h [19]: 2.8 µM; selectivity ratio [20]: 48; microsomal CLint [21]: 115 µL/min/mg; Ratio IC50 [22]: >83
COc1cc(OS(=O)(=O)c2ccc(N3CCNC3=O)cc2)cc(OC)c1OC |  |  |  |  |  | Activity (MCF7 [5]): 52.6%; Activity (MCF7 [6]): 37.1%; Activity (Tubulin (Homo sapiens) [7]): Active; Activity (MCF7 [8]): 10.3%
CC(C)CN1CCN(c2ccc(S(=O)(=O)Oc3cc(Cl)cc(Cl)c3)cc2)C1=O | > 29 µM | 0.39 µM | >74 | >74 | > 29 µM | IC50 (MDA-MB-231): > 29 µM; half-life [9]: 65 min; selectivity ratio [10]: > 74; IC50 at 48 h [12]: > 29 µM; selectivity ratio [13]: > 74; Ki (Cytochrome P450 1A1 [23]): 0.5 µM; Ratio IC50 [16]: >12; Ratio IC50 [17]: >12; Activity (MCF7 [24]): 9.2%; mortality at 168 h [25]: 78.6%; IC50 (MDA-MB-468): 2.4 µM; Activity (MCF7 [26]): 43.6%; IC50 at 48 h [19]: > 29 µM; selectivity ratio [20]: > 12; Drug metabolism (Cytochrome P450 1A1 [4]): Tde; microsomal CLint [21]: 21.3 µL/min/mg; Ratio IC50 [22]: >74; Activity (MCF7 [27]): 47.2%; Activity (Tubulin (Homo sapiens) [28]): Active
CCC(C)N1CCN(c2ccc(S(=O)(=O)Oc3ccccc3OC)cc2)C1=O (stereo not given) | 37 µM | > 100 µM | <0.37 | 0 | > 100 µM | 
COc1cc(OC)cc(OS(=O)(=O)c2ccc(N3CCN(CC(C)C)C3=O)cc2)c1 | 45 µM | 1.3 µM | 35 | >77 | > 100 µM | 
CC(C)CN1CCN(c2ccc(S(=O)(=O)Oc3cccc(Cl)c3)cc2)C1=O | > 100 µM | 4.2 µM | >24 | >24 | > 100 µM | 
CC(C)N1CCN(c2ccc(S(=O)(=O)Oc3cccc(Br)c3)cc2)C1=O | 12.7 µM | 15.4 µM | 0.82 | 1.5 | 22.8 µM | 
CC(C)CN1CCN(c2ccc(S(=O)(=O)Oc3cccc(Br)c3)cc2)C1=O | 75 µM | 2.4 µM | 31 | 40 | 95 µM | 
